# Key:
# [1] = test system: Granny Smith and Red Delicious apples; test: Inspection for phytotoxicity on the fruit the morning after DPA aerosol application (Example 1); assay type: in vivo; settings: 15 grams per ton DPA aerosol
# Text: DPA was applied to Granny Smith and Red Delicious apples at a research facility. Solid, technical grade (99.5%) DPA was melted and applied to the apples in a storage facility as an aerosol using a commercial thermal fogger equipment, provided by Custom Chemical of Warden Wash., as described above. The apples were loaded into 20 bins, of 900 pounds each, of each variety and stacked in a three by three arrangement. The bins were stacked: five high in all of the back rows, in a 5-4-5 high arrangement in the center row and in a 4-3-4 arrangement in the front row. DPA was applied at a rate of 15 grams per ton. This represents a 50% excess to account for any loss in void spaces. The thermal fogging equipment was placed in the hallway of the storage facility with two 10 foot lengths of flex pipe attached to a porthole in the door of the sealed storage room. Fumigating started and reached optimum saturation in 15 minutes. The porthole was then sealed and the room was left alone for 16 hours. Application of the aerosol DPA began with the storage facility fans off. The fans were turned on after 10 minutes of aerosol DPA application and run at ambient temperatures for 12-16 hours. The morning after application the room was unsealed the apples, bins, storage walls and fan blades were checked for anomalies such as DAP sublimation as crystals and possible phytotoxicity on the fruit.
# [2] = test system: Granny Smith and Red Delicious apples; test: Scald and decay observation of DPA-fogged apples in cold air storage (Example 1); assay type: in vivo
# Text: DPA was applied to Granny Smith and Red Delicious apples at a research facility. Solid, technical grade (99.5%) DPA was melted and applied to the apples in a storage facility as an aerosol using a commercial thermal fogger equipment, provided by Custom Chemical of Warden Wash., as described above. The apples were loaded into 20 bins, of 900 pounds each, of each variety and stacked in a three by three arrangement. The bins were stacked: five high in all of the back rows, in a 5-4-5 high arrangement in the center row and in a 4-3-4 arrangement in the front row. DPA was applied at a rate of 15 grams per ton. This represents a 50% excess to account for any loss in void spaces. The thermal fogging equipment was placed in the hallway of the storage facility with two 10 foot lengths of flex pipe attached to a porthole in the door of the sealed storage room. Fumigating started and reached optimum saturation in 15 minutes. The porthole was then sealed and the room was left alone for 16 hours. Application of the aerosol DPA began with the storage facility fans off. The fans were turned on after 10 minutes of aerosol DPA application and run at ambient temperatures for 12-16 hours. The morning after application the room was unsealed the apples, bins, storage walls and fan blades were checked for anomalies such as DAP sublimation as crystals and possible phytotoxicity on the fruit. […] After the initial inspection the bins were arranged outside of the building so samples could be taken. Each bin was marked as to its location in the room and samples were marked with those same ID codes. Samples were taken from the top of each bin and also by digging into the center of the bin. Each bin was effectively sampled two times. These samples were tested for DPA residual by gas chromatography. The bins were than transferred to a cold air storage facility and observed for five months. Periodically samples were collected for DPA residue, scald and decay analysis as describe below. After 6 weeks additional samples were taken and tested for DPA residual by gas chromatography. These samples were taken like the first set, eight apples from the top of the bin and then digging into the center for eight apples. After two months in common storage four bins were set out for evaluation, two Granny Smith and two Red Delicious. […] The next samples were taken one month later. […] One month later samples were taken in the same fashion as before, top and middle of the bins. Because a fungicide was not used, penicillium rot was showing in about 8% of the Red Delicious samples. The Granny Smith samples were starting to show some decay, roughly 1⁄2 percent. […] The next to last sample was taken about 6 weeks later. Scald was not a problem. […] The positive impact of the treatment was especially evident in the Granny Smith apples which are more susceptible to scald. The decay incidences were unchanged. As stated in the earlier, there was generally a slightly higher decay rate in Red Delicious compared to prior art drench type applications, which typically use one or a combination of two fungicides. The decay in this test was attributed to the lack of fungicide use in this trial.
structure (smiles),measurement,setting,value
"c1ccc(Nc2ccccc2)cc1 [DPA, diphenylamine]",possible phytotoxicity on the fruit,[1],None was found
same,Scald,"[2]; after two months in common storage, two Granny Smith and two Red Delicious bins",No Scald was apparent in any bin
same,Scald,"[2]; final assessment, approximately two weeks after the next to last sample",no additional scald
same,Scald,"[2]; next to last sample, about 6 weeks later, all bins",no scald found in any bin
same,Scald,"[2]; one month after the two-month evaluation, both varieties",Scald was not showing in either variety
same,Scald,"[2]; two months after the two-month evaluation, both varieties",Scald was not apparent in either variety

# From patent US20080103212A1, “Treatment of fruit in storage facility with solid derived diphenylamine anti scald agent” (priority 2006, published 2008)
